Test results taken from patent US5916887A, “4-substituted-3-(2-amino-2-cycloalkyl methyl)-acetamido azetidin-2-one derivatives as cysteine proteinase regulators” (National Research Council of Canada, priority 1997, dated 1999).

Columns and labels:
cathepsin B [1] = biological target: T1, cathepsin B (Rattus norvegicus, UniProt P00787); experiment: In vitro assay procedure for cathepsin B (recombinant rat cathepsin B, N-CBZ-Phe-Arg-AMC substrate); assay type: biochemical; details: pH 5.1, 10 min incubation at room temperature
Protocol: In vitro assay procedure for cathepsin B
The compounds of formula I are tested for inhibition of cathepsin B using the known method (A. J. Barret et al., Biochem. J. 1982, 201, 189-198). To 170 μl of an enzyme-buffer mixture (enzyme: recombinant rat cathepsin B, diluted to give approximate 10 Fluorescence units/min, buffer: 56 mM sodium acetate, 1.124 mM EDTA, 10 mM DTT, pH 5.1) 10 μL of inhibitor (dissolved in DMSO) is added. After 10 min of incubation at room temperature, a 20 μl of 5 mM substrate (N-CBZ-Phe-Arg-AMC, dissolved in DMSO) is added to initiate reaction. Reading is followed up for 10 min on a Fluoroskan fluorescence reader (excitation at 380 nm, emission at 460 nm).
(§1) A plot of percentage of inhibition vs inhibitor concentration is obtained, and IC50 is determined using a linear regression calculation (concentration of inhibitor which will give 50% inhibition).
Target sequence in this assay (P00787 80-339): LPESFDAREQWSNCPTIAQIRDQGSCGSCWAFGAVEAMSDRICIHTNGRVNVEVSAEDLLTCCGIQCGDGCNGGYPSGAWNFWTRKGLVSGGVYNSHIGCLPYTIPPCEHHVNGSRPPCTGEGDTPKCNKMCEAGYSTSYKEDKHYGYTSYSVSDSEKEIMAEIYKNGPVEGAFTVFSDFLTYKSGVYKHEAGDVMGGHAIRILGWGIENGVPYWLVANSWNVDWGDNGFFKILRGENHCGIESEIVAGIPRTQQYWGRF

cathepsin L [2] = biological target: T2, cathepsin L (Rattus norvegicus, UniProt P07154); experiment: In vitro assay procedure for cathepsin L (recombinant rat cathepsin L, N-CBZ-Phe-Arg-AMC substrate); assay type: biochemical; details: pH 5.0, 10 min incubation at room temperature
Protocol: In vitro assay procedure for cathepsin L
To 170 μl of enzyme-buffer mixture (enzyme: recombinant rat cathepsin L, diluted to give approximate 15 Fluorescence units/min, buffer: 58.8 mM sodium citrate, 1.18 mM EDTA, 235 mM sodium chloride, 5 mM DTT, pH 5.0) 10 μL of inhibitor (dissolved in DMSO) is added. After 10 min of incubation at room temperature, 20 μl of 1 mM substrate (N-CBZ-Phe-Arg-AMC, dissolved in DMSO) is added to initiate reaction. Reading is followed up for 10 min on a Fluoroskan fluorescence reader (excitation at 380 nm emission at 460 nm).
as §1
Target sequence in this assay (P07154 114-334): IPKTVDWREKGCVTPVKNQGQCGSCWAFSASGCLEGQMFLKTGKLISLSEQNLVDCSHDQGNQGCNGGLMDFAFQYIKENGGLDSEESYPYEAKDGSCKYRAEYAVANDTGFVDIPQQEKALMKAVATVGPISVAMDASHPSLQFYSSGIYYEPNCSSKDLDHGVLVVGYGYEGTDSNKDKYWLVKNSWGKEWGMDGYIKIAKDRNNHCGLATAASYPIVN

cathepsin L [3] = experiment: In vivo inhibition test for cathepsin L, mouse liver ML fraction; details: 50 mg/kg intraperitoneal, 6 hours, mean for 3 animals
Protocol: (§2) In vivo inhibition test for cathepsin B and L
(§3) The in vivo inhibition of cathepsin B and L are tested according to the known method (T. Towatari et al, FEBS, 1991, 280, 311-315). Inhibitor is injected intraperitoneally into rodents as a solution in saline containing DMSO or DMSO:PEG400 (1:1) at the doses indicated in Table 2. The rodents are killed after 6 hours, and the liver is perfused with ice-cold saline, and chilled on ice. Sample of 4 g of liver are homogenized in 7 volumes of 0.25 M sucrose. The homogenate is centrifuged at 800 g for 15 min. and the supernatant is centrifuged at 12,000 g for 30 min. The precipitate (crude mitochondrial-lysosomal fraction; ML fraction) is suspended in 2 ml of 0.05 M acetate buffer, pH 5.0, and then freeze-thawed for measurements of cathepsin B and L.

cathepsin B [4] = experiment: In vivo inhibition test for cathepsin B, mouse liver ML fraction; details: 50 mg/kg intraperitoneal, 6 hours, mean for 3 animals
Protocol: as §2, §3

cathepsin B [5] = biological target: T1, cathepsin B; experiment: In vivo inhibition test for cathepsin B, rat liver ML fraction; parameters: The precipitate (crude mitochondrial-lysosomal fraction; from tissue; host or cells: liver, crude mitochondrial-lysosomal (ML) fraction of dosed rodents; details: 6 hours, mean for 3 animals
Protocol: as §2, §3
Target sequence in this assay (P00787 80-126 limits assumed): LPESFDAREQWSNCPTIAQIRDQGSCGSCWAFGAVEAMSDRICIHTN
Target sequence in this assay (P00787 129-333 limits assumed): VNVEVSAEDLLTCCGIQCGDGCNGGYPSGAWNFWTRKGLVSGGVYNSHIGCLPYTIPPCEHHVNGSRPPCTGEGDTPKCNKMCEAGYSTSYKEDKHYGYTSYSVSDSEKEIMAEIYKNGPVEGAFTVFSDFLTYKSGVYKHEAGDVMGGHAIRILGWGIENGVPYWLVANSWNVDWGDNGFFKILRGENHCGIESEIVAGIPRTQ

cathepsin L [6] = biological target: T2, cathepsin L; experiment: In vivo inhibition test for cathepsin L, rat liver ML fraction; parameters: The precipitate (crude mitochondrial-lysosomal fraction; from tissue; host or cells: liver, crude mitochondrial-lysosomal (ML) fraction of dosed rodents; details: 6 hours, mean for 3 animals
Protocol: as §2, §3
Target sequence in this assay (P07154 114-288 limits assumed): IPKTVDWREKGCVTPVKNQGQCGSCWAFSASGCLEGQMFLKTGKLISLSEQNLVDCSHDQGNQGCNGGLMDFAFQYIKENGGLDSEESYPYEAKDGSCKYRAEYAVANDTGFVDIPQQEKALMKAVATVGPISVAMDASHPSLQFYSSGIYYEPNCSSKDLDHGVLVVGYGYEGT
Target sequence in this assay (P07154 291-334 limits assumed): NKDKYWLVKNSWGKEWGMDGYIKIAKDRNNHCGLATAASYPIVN

Row | SMILES | IC50 (cathepsin B [1]) [µM] | IC50 (cathepsin L [2]) [µM] | further results
1 | CC(=O)O[C@@H]1NC(=O)[C@H]1NC(=O)[C@H](CC1CCCCC1)NC(=O)OCc1ccccc1 [Example 1, (3S,4S)-3-(2S-2-benzyloxycarbonylamino-2-cyclohexylmethyl-acetamido)-4-acetoxy-azetidin-2-one] | 8.71 | 0.78 | –
2 | CC(=O)O[C@@H]1NC(=O)[C@H]1NC(=O)[C@H](CC1CCCCC1)NC(=O)CCc1ccccc1 [Example 2, (3S,4S)-3-{2S-2-(3-phenylpropionoyl)amino-2-cyclohexylmethyl-acetamido}-4-acetoxy-azetidin-2-one] | 11.6 | 2.32 | –
3 | O=C(CCc1ccccc1)N[C@@H](CC1CCCCC1)C(=O)N[C@H]1C(=O)NC1S(=O)(=O)c1ccccc1 (stereo partly drawn) [Example 6, (3S,4SR)-3-{2S-2-(3-phenylpropionoyl)amino-2-cyclohexylmethyl-acetamido}-4-phenylsulfonyl-azetidin-2-one] | 29 | 0.078 | –
4 | CC(=O)O[C@@H]1NC(=O)[C@H]1NC(=O)[C@H](CC1CCCCC1)NC(=O)NCc1ccccc1 [Example 7, (3S,4S)-3-{2S-2-(benzylaminocarbonyl)amino-2-cyclohexylmethyl-acetamido}-4-acetoxy-azetidin-2-one] | 11.6 | 2.3 | –
5 | CC(=O)O[C@@H]1NC(=O)[C@H]1NC(=O)[C@H](CC1CCCCC1)NS(=O)(=O)/C=C/c1ccccc1 [Example 8, (3S,4S)-3-{2S-2-(phenylethenylsulfonyl)amino-2-cyclohexylmethyl-acetamido}-4-acetoxy-azetidin-2-one] | 11 | 2.16 | –
6 | Cc1cccc(O[C@H]2NC(=O)[C@H]2NC(=O)[C@H](CC2CCCCC2)NC(=O)OCc2ccccc2)c1 [Example 9B, (3S,4R)-3-(2S-2-benzyloxycarbonylamino-2-cyclohexylmethyl-acetamido)-4-(3-methyl-phenoxy)-azetidin-2-one] | 0.25 | 0.003 | –
7 | O=C(C=Cc1cccnc1)N[C@@H](CC1CCCCC1)C(=O)N[C@@H]1C(=O)N[C@H]1Oc1ccccc1 [Example 11, (3S,4S)-3-{2S-2-[3-(pyridin-3-yl)propenoyl]amino-2-cyclohexylmethyl-acetamido}-4-phenoxy-azetidin-2-one] | 2.2 | 0.43 | –
8 | N[C@@H](Cc1ccc(O[C@@H]2NC(=O)[C@H]2NC(=O)[C@H](Cc2ccccc2)NC(=O)CCc2ccccc2)cc1)C(=O)O [Ref. Compd.] | – | – | Inhibition Cathepsin B (cathepsin B [5]; 30 mg/kg intraperitoneal): 37%; Inhibition Cathepsin B (cathepsin B [5]; 70 mg/kg intraperitoneal): 56%; Inhibition Cathepsin L (cathepsin L [6]; 30 mg/kg intraperitoneal): 30%; Inhibition Cathepsin L (cathepsin L [6]; 70 mg/kg intraperitoneal): 55%

Continued, in another order:

Row | IC50 (cathepsin B [1]) [µM] | IC50 (cathepsin L [2]) [µM] | SMILES | further results
9 | 34 | 1.82 | N[C@@H](Cc1ccc(O[C@@H]2NC(=O)[C@H]2NC(=O)[C@H](CC2CCCCC2)NC(=O)CCc2ccccc2)cc1)C(=O)O [Example 3, (3S,4S)-3-{2S-2-(3-phenylpropionoyl)amino-2-cyclohexylmethyl-acetamido}-4-{4-(2S-2-amino-2-carboxy-ethyl)-phenoxy}-azetidin-2-one] | Inhibition Cathepsin L (cathepsin L [3]): 55%; Inhibition Cathepsin B (cathepsin B [4]): 65%
10 | 9.2 | 1.8 | N[C@@H](Cc1ccc(O[C@H]2NC(=O)[C@H]2NC(=O)[C@H](CC2CCCCC2)NC(=O)CCc2ccccc2)cc1)C(=O)O [Example 4, (3S,4R)-3-{2S-2-(3-phenylpropionoyl)amino-2-cyclohexylmethyl-acetamido}-4-{4-(2S-2-amino-2-carboxy-ethyl)-phenoxy}-azetidin-2-one] | –
11 | 10.4 | 0.016 | O=C(CCc1ccccc1)N[C@@H](CC1CCCCC1)C(=O)N[C@H]1C(=O)NC1Sc1ccccc1 (stereo partly drawn) [Example 5, (3S,4SR)-3-{2S-2-(3-phenylpropionoyl)amino-2-cyclohexylmethyl-acetamido}-4-phenylthio-azetidin-2-one] | –
12 | 6.9 | 0.083 | Cc1cccc(O[C@@H]2NC(=O)[C@H]2NC(=O)[C@H](CC2CCCCC2)NC(=O)OCc2ccccc2)c1 [Example 9A, (3S,4S)-3-(2S-2-benzyloxycarbonylamino-2-cyclohexylmethyl-acetamido)-4-(3-methyl-phenoxy)-azetidin-2-one] | –
13 | 1 | 0.4 | O=C(C=Cc1ccncc1)N[C@@H](CC1CCCCC1)C(=O)N[C@@H]1C(=O)N[C@H]1Oc1ccccc1 [Example 10, (3S,4S)-3-{2S-2-[3-(pyridin-4-yl)propenoyl]amino-2-cyclohexylmethyl-acetamido}-4-phenoxy-azetidin-2-one] | –
